Our source for the inhibition and IC50 values is ChEMBL document CHEMBL5303765, “Data for DCP probe BAY-7081” (2023).

The target in experiment [1] is Nicotinic Acetylcholine Receptor (Homo sapiens) (UniProt P02708+P07510+P11230+P17787+P30926+P32297+P43681+Q07001+Q15822+Q9UGM1+Q15825+P30532+Q04844+P36544+Q9GZZ6+Q05901). Briefly: Nicotinic Acetylcholine Eurofins Panlabs panel. The experiment is classed as protein-complex assay. Particulars: Compound concentration 10.0 uM; call rule not given here.
The target of experiment [2] is Alpha-1B adrenergic receptor (Homo sapiens) (UniProt P35368). Conditions: Compound concentration 10.0 uM.
Experiment [3] deals with Carbonic anhydrase 2 (Homo sapiens) (UniProt P00918). Briefly: Carbonic Anhydrase II Eurofins Panlabs panel. Particulars: Compound concentration 10.0 uM.
Experiment [4] deals with Glutamate NMDA receptor (Rattus norvegicus) (UniProt P35439+Q00959+Q00960+Q00961+Q62645+Q8VHN2+Q9R1M7). Put plainly: Glutamate, NMDA, Agonism Eurofins Panlabs panel. The experiment is classed as protein-complex assay. Conditions: Compound concentration 10.0 uM.
Experiment [5] addresses B2 bradykinin receptor (Homo sapiens) (UniProt P30411). Briefly: Bradykinin B2 Eurofins Panlabs panel. Conditions: Compound concentration 10.0 uM.
Experiment [6] has as its target Progesterone receptor (Homo sapiens) (UniProt P06401). Put plainly: Progesterone PR-B Eurofins Panlabs panel. Conditions: Compound concentration 10.0 uM.
Experiment [7] addresses T1, Alpha-2A adrenergic receptor (Homo sapiens) (UniProt P08913).
T1 sequence (whole entry): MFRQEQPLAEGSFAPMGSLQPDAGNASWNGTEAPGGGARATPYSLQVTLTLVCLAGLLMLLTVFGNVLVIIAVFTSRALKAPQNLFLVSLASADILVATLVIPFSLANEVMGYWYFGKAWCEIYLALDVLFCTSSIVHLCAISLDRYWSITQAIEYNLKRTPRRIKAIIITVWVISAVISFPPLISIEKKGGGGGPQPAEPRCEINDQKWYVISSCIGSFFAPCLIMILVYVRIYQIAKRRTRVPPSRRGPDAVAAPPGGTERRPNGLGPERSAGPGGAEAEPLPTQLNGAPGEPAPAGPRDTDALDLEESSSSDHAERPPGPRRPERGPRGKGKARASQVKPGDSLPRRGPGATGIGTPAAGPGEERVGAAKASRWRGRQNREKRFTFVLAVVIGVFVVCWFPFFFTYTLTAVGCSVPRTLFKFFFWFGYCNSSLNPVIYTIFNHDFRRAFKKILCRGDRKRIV
Put plainly: Adrenergic alpha2A Eurofins Panlabs panel. Conditions: Compound concentration 10.0 uM.

Experiment [8] has as its target T2, Dual 3',5'-cyclic-AMP and -GMP phosphodiesterase 11A (Homo sapiens, UniProt Q9HCR9). Put plainly: 3H-cAMP and 3H-cGMP Scintillation Proximity Assay (PDE11A).
Target sequence in this assay (Q9HCR9 whole entry): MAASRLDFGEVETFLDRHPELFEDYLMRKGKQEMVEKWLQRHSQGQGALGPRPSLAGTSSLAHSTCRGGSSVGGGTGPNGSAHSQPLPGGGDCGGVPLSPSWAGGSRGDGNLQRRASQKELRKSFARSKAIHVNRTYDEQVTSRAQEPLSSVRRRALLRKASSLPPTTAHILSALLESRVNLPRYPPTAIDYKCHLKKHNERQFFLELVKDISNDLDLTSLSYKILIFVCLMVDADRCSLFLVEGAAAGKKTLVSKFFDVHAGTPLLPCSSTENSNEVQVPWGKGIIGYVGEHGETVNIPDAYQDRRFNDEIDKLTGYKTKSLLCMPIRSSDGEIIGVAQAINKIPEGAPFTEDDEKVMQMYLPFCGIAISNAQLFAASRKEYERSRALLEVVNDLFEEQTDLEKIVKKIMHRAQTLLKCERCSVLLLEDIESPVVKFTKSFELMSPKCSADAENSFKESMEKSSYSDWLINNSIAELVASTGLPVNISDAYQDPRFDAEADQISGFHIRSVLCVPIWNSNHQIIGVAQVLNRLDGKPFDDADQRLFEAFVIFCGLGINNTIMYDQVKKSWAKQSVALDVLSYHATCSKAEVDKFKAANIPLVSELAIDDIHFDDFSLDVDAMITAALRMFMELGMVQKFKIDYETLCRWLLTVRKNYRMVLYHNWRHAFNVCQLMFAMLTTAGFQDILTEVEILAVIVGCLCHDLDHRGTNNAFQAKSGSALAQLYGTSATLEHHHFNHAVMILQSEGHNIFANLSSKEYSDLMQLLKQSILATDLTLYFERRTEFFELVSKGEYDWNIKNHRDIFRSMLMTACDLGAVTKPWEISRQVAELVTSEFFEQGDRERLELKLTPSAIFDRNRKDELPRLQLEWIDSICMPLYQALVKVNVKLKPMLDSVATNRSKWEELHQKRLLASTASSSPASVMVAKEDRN
Experiment [9] has as its target Sigma non-opioid intracellular receptor 1 (Homo sapiens) (UniProt Q99720). Briefly: Sigma1 Eurofins Panlabs panel. Particulars: Compound concentration 10.0 uM.
Experiment [10] has as its target Cannabinoid receptor 2 (Homo sapiens) (UniProt P34972). Put plainly: Cannabinoid CB2 Eurofins Panlabs panel. Conditions: Compound concentration 10.0 uM.
The target in experiment [11] is D(1A) dopamine receptor (Homo sapiens) (UniProt P21728). Briefly: Dopamine D1 Eurofins Panlabs panel. Particulars: Compound concentration 10.0 uM.
The target of experiment [12] is Epidermal growth factor receptor (Homo sapiens) (UniProt P00533). Put plainly: Protein Tyrosine Kinase, EGF Receptor Eurofins Panlabs panel. Conditions: Compound concentration 10.0 uM.
The target in experiment [13] is T3, Alpha-2C adrenergic receptor (Homo sapiens) (UniProt P18825).
T3 sequence (whole entry): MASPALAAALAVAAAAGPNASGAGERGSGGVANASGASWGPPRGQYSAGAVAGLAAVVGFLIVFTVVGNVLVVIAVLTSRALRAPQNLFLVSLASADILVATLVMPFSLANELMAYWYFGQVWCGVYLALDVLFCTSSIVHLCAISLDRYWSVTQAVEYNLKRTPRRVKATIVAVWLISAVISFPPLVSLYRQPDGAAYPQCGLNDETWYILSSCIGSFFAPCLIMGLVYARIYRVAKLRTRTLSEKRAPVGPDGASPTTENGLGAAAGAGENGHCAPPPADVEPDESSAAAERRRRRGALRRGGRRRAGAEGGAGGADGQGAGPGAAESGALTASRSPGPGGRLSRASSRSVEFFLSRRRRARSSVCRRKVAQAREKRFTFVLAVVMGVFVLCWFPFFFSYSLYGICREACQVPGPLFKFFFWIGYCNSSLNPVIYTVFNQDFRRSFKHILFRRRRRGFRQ
Put plainly: Adrenergic alpha2C Eurofins Panlabs panel. Particulars: Compound concentration 10.0 uM.

Experiment [14] concerns the target P2X receptor (Rattus norvegicus) (UniProt P51579+P49653+P51578+Q64663+P47824+P51577+P49654). Put plainly: Purinergic P2X Eurofins Panlabs panel. The experiment is classed as protein assay. Particulars: concentration not given here.
Experiment [15] concerns the target Substance-P receptor (Homo sapiens) (UniProt P25103). Put plainly: Tachykinin NK1 Eurofins Panlabs panel. Conditions: Compound concentration 10.0 uM.
In experiment [16] the target is Delta-type opioid receptor (Homo sapiens) (UniProt P41143). Put plainly: Opiate delta1 (OP1, DOP) Eurofins Panlabs panel. Particulars: Compound concentration 10.0 uM.
Experiment [17] concerns the target Endothelin receptor type B (Homo sapiens) (UniProt P24530). Put plainly: Endothelin ETB Eurofins Panlabs panel. Particulars: Compound concentration 10.0 uM.
The target in experiment [18] is Cannabinoid receptor 1 (Homo sapiens) (UniProt P21554). Put plainly: Cannabinoid CB1 Eurofins Panlabs panel. Conditions: Compound concentration 10.0 uM.
The target of experiment [19] is Thromboxane-A synthase (Homo sapiens) (UniProt P24557). Put plainly: Thromboxane Synthase Eurofins Panlabs panel. Particulars: concentration not given here.
Experiment [20] addresses GABA B receptor (Rattus norvegicus) (UniProt Q9Z0U4+O88871). Briefly: GABAB, Non-Selective Eurofins Panlabs panel. Conditions: Compound concentration 10.0 uM. The experiment is classed as protein-complex assay.
In experiment [21] the target is T4, Muscarinic acetylcholine receptor M4 (Homo sapiens) (UniProt P08173).
T4 sequence (whole entry): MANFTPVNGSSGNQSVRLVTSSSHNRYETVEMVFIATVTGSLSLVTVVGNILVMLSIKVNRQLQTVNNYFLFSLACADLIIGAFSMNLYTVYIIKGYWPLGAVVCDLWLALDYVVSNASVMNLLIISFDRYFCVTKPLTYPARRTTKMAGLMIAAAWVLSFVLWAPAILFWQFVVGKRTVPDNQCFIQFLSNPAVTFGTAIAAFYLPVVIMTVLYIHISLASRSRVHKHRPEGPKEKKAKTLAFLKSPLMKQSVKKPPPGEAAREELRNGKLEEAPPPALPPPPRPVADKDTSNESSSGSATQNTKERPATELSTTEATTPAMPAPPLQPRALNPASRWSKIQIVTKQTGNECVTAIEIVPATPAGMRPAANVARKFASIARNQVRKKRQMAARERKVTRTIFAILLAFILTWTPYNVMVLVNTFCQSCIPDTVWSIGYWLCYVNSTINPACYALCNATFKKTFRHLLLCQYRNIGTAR
Briefly: Muscarinic M4 Eurofins Panlabs panel. Particulars: Compound concentration 10.0 uM.

The target in experiment [22] is Phosphodiesterase 4 (Homo sapiens) (UniProt P27815+Q08499+Q07343+Q08493). Briefly: Phosphodiesterase PDE4 Eurofins Panlabs panel. The experiment is classed as protein assay. Conditions: Compound concentration 10.0 uM.
Experiment [23] concerns the target Dual specificity calcium/calmodulin-dependent 3',5'-cyclic nucleotide phosphodiesterase 1A (Homo sapiens) (UniProt P54750). Put plainly: Panlabs assay PDE1A. More on the design: compound concentration 10 uM. Particulars: at 10 µM.
The target in experiment [24] is High affinity cAMP-specific and IBMX-insensitive 3',5'-cyclic phosphodiesterase 8A (Homo sapiens, UniProt O60658). Put plainly: Panlabs assay PDE8A1. More on the design: compound concentration 10 uM. Conditions: at 10 µM.
For experiment [25], the target named is T2, Dual 3',5'-cyclic-AMP and -GMP phosphodiesterase 11A. Briefly: Panlabs assay PDE11A4. Particulars: at 10 µM. More on the design: compound concentration 10 uM.
Target sequence in this assay (Q9HCR9 whole entry, looked up): as the sequence (Q9HCR9 whole entry) above
Experiment [26] deals with High affinity 3',5'-cyclic-AMP phosphodiesterase 7A (Homo sapiens) (UniProt Q13946). Briefly: Panlabs assay PDE7A. The arrangement: compound concentration 10 uM. Particulars: at 10 µM.
Experiment [27] deals with cGMP-dependent 3',5'-cyclic phosphodiesterase (Homo sapiens, UniProt O00408). Briefly: Panlabs assay PDE2A. More on the design: compound concentration 10 uM. Particulars: at 10 µM.

Molecules are shown by their SMILES.

Sequence of Alpha-1B adrenergic receptor (Homo sapiens) (P35368 whole entry): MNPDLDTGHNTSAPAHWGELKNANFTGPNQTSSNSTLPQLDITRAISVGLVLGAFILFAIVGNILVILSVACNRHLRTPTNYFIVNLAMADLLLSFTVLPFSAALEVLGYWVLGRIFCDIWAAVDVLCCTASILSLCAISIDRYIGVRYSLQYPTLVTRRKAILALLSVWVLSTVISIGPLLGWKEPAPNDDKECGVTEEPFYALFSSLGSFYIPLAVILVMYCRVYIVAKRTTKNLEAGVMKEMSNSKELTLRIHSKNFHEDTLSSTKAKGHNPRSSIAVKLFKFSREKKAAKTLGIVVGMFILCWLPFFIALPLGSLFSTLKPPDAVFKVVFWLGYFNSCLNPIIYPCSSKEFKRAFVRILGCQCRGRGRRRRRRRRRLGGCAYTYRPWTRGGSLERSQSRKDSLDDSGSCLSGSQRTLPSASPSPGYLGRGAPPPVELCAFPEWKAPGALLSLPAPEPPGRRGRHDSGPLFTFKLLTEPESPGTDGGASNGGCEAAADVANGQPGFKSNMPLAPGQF
Sequence of Endothelin receptor type B (Homo sapiens) (P24530 whole entry): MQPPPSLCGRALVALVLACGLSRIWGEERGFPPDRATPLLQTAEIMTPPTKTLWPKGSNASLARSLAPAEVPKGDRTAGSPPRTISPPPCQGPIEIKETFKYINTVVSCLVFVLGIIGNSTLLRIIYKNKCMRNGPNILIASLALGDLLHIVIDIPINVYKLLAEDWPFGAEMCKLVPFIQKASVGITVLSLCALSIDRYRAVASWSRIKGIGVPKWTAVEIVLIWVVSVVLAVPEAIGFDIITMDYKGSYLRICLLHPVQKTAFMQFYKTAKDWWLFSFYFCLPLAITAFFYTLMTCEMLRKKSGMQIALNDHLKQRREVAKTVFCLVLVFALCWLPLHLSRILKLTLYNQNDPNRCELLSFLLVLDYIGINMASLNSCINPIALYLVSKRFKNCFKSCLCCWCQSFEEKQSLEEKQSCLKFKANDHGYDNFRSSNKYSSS
Sequence of D(1A) dopamine receptor (Homo sapiens) (P21728 whole entry): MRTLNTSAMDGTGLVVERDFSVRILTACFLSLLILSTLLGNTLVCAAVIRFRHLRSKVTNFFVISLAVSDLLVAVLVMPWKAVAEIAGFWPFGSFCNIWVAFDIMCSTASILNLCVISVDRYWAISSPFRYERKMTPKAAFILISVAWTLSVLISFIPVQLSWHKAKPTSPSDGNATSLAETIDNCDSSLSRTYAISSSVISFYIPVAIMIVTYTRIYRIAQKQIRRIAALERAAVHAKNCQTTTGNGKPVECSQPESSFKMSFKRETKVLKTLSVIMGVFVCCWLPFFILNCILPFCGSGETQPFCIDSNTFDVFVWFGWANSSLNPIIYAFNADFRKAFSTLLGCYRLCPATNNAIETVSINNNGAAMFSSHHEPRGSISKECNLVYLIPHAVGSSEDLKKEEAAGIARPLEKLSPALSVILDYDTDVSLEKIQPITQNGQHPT
Sequence of Delta-type opioid receptor (Homo sapiens) (P41143 whole entry): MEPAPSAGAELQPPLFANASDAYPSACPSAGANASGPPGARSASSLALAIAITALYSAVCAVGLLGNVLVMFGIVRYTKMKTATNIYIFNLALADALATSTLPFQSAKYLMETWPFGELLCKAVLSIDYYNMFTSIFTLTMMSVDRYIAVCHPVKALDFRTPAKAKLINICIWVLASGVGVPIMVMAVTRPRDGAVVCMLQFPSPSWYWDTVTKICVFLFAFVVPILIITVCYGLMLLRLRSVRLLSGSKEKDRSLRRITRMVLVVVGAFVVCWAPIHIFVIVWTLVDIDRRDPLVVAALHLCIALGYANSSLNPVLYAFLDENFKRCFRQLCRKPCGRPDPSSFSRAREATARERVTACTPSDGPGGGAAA
Sequence of High affinity 3',5'-cyclic-AMP phosphodiesterase 7A (Homo sapiens) (Q13946 whole entry): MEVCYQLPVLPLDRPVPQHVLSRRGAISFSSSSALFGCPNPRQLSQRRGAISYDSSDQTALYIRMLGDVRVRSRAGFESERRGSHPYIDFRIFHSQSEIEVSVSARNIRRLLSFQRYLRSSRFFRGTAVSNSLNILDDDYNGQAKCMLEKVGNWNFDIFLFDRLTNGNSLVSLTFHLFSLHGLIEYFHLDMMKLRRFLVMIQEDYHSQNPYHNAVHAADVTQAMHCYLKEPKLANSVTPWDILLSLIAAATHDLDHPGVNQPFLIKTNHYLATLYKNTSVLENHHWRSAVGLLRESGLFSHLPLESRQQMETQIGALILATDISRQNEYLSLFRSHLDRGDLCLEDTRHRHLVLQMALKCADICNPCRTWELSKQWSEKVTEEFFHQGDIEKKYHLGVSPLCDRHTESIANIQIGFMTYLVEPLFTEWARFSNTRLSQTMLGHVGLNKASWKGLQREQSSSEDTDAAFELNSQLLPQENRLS
Sequence of Substance-P receptor (Homo sapiens) (P25103 whole entry): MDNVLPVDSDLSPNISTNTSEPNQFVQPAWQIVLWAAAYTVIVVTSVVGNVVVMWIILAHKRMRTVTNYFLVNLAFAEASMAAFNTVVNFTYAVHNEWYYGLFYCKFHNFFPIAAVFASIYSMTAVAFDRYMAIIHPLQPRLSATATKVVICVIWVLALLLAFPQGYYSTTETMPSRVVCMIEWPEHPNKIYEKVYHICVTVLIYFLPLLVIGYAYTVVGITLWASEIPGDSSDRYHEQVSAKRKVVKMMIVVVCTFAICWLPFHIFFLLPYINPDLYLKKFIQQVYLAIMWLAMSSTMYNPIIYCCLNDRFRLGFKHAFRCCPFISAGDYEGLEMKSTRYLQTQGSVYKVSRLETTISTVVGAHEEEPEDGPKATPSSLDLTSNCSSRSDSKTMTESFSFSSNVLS
Sequence of B2 bradykinin receptor (Homo sapiens) (P30411 whole entry): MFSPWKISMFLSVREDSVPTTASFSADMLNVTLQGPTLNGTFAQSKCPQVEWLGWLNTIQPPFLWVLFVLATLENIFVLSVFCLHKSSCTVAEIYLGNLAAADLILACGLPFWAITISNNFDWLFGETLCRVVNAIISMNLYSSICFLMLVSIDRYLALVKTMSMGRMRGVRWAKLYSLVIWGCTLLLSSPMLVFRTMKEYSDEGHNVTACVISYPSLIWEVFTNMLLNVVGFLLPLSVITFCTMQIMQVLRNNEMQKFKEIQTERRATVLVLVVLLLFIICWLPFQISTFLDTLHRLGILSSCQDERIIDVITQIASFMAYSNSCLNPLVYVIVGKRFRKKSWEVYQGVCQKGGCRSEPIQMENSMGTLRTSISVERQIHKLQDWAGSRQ
Sequence of Thromboxane-A synthase (Homo sapiens) (P24557 whole entry): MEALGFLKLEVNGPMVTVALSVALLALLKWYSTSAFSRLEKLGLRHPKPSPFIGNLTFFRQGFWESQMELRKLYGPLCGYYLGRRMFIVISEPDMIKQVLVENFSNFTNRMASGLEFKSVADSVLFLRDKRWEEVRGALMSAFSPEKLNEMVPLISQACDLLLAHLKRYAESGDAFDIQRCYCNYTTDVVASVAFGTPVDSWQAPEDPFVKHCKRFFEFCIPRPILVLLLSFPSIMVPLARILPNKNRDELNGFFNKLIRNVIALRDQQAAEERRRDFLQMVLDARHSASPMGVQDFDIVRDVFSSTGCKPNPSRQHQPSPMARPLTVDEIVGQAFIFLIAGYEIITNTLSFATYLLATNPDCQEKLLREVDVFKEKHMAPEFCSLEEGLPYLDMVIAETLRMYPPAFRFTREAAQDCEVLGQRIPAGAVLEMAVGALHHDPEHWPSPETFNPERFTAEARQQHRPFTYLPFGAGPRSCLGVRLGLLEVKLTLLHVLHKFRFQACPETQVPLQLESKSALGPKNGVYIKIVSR
Sequence of Sigma non-opioid intracellular receptor 1 (Homo sapiens) (Q99720 whole entry): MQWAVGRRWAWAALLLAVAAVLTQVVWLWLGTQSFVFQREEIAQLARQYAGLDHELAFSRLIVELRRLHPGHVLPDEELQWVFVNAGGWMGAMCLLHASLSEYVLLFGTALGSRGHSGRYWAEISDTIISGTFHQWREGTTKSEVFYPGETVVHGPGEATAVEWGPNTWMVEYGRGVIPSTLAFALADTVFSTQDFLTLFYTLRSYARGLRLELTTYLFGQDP

Regarding `CCC[C@H]1CNCc2c1[nH]c(=O)c(C#N)c2N1CCC2(CC1)CC2`, the inhibition is 5% in experiment [1]; 4.43% in experiment [2]; -7.5% in [3]; 6% in experiment [4]; -4% in experiment [5]; 2% in experiment [6]. The inhibition in experiment [7] was 28%; in experiment [9], -4%; in [10], -1%; in experiment [11], 1%; in experiment [12] it was 9%; in [13] it was -1%. Besides, the inhibition was 0% in experiment [14]; -7% in experiment [15]; 5% in [16]; 8% in [17]; 31.2% in experiment [18]; 0% in [19]. The inhibition in experiment [20] is -1%; in [21], -4%; in [22], 58%. For the same molecule, the IC50 in [8] is given as 6.6 µM (not active).
Regarding `CCC[C@@H]1CNCc2c1[nH]c(=O)c(C#N)c2N1CCC2(CC1)CC2`, the inhibition in experiment [23] was 7.7%; in experiment [24] it was 2.9%; in experiment [25], 1.3%; in [26], -1.6%; in experiment [27] it was 3.5%.
